Entries after “also recorded” stand apart in the source; their conditions may differ.
Legend:
[1] = test system: nahR/Psal::xylS2 cascade circuit with Pm::trp′::′lacZ in SL7207 4S2; format: cell-based, Salmonella typhimurium
XylS2 = XylS2 mutant regulator; cited from earlier work
[2] = test system: nahR/Psal with xylS2/Pm downstream; details: cited from earlier work
SL7207 4S2 = assay: growth inhibition of the bacterial cultures at high inducer concentration; details: high concentrations (5 mM)
[3] = test system: SL7207 4S2 pWSK-/pCAS-trp′::′lacZ infecting HeLa cells; format: cell-based
MarR = MarR (Escherichia coli, UniProt P27245); details: cited from earlier work
MarR, sequence (P27245 whole entry): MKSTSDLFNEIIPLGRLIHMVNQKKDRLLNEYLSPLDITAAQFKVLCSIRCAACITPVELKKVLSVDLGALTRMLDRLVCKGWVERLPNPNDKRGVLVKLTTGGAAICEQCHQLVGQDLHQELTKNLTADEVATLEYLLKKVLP

[4] = in vivo; cited from earlier work

Row | Compound | induction of the system, salicylate compared with acetylsalicylic acid [1] | induction of expression (XylS2) [fold] | induction reached with regulation cascade system [2] | growth inhibition (SL7207 4S2) | β-galactosidase expression in bacteria infecting HeLa cells [3] | Kd (MarR) [µM] | half-life [4] [h]
1 | CC(=O)Oc1ccccc1C(=O)O [acetylsalicylic acid] | induced the system similarly | 10 | 1,000 fold | growth inhibition was evident | induce similar levels of β-galactosidase; also recorded: activate the signal cascade to similar levels | – | –
2 | O=C(O)c1ccccc1O [salicylate] | – | – | – | – | – | 500 | 2 to 4
